According to the SangsterLogP compilation:

Assay: method code SF-AS, from DOI: 10.1098/rspb.1976.0034, PMID: 5728
Details: pH 4.5

Row | Compound | logD
1 | CCCCNC(=O)c1ccc(S(N)(=O)=O)cc1 | 1.05
2 | CCCOC(=O)c1ccc(S(N)(=O)=O)cc1 | 1.75
3 | CCCCc1ccc(S(N)(=O)=O)cc1 | 2.45
4 | CCCNC(=O)c1ccc(S(N)(=O)=O)cc1 | 0.51
5 | CCCCCNC(=O)c1ccc(S(N)(=O)=O)cc1 | 1.51
6 | CCCc1ccc(S(N)(=O)=O)cc1 | 1.64
7 | CCc1ccc(S(N)(=O)=O)cc1 | 1.31
8 | CCCCCOC(=O)c1ccc(S(N)(=O)=O)cc1 | 2.71
9 | CCOC(=O)c1ccc(S(N)(=O)=O)cc1 | 1.17
10 | CCNC(=O)c1ccc(S(N)(=O)=O)cc1 | 0.03
11 | CCCCOC(=O)c1ccc(S(N)(=O)=O)cc1 | 2.34
12 | CNC(=O)c1ccc(S(N)(=O)=O)cc1 | -0.31
13 | CCCCCCNC(=O)c1ccc(S(N)(=O)=O)cc1 | 2.05
